Test results taken from patent publication US4672054A, “Process for the preparation of angiotensin-II analogues substituted in the 1-, 5- and 8- positions” (Richter Gedeon Vegyeszeti Gyar Rt., priority 1984, dated 1987).
Where two headings read alike, the source gives them in different places. Where a SMILES comes first, the peptide text is derived from it. [ ]: non-standard residue; d: D form. The star is where a group is joined. Gly(cPent) = N[C@H](C(=O)O)C1CCCC1; Chg = N[C@H](C(=O)O)C1CCCCC1; Lac = C[C@H](O)C(=O)O; Glycolyl = O=C(CO)*; Sar = CNCC(=O)O

Legend:
aldosterone production = assay type: cell-based
Protocol: (§1) The octapeptides of the formula (I) are purified in a manner known per se, preferably by cellulose ion exchange chromatography. As a result, compounds are generally obtained as lyophilized powders, which can be converted into the corresponding acid addition salts or complexes. The inhibiting effect of the compounds of the formula (I) on the aldosterone production and vasoconstriction was tested in in vitro experiments.

[1] = tested on: isolated rabbit aorta vessel preparate; assay type: cell-based
Protocol: as §1
In the latter test the inhibition of vasoconstriction induced by AII is measured on isolated rabbit aorta vessel preparate [J. Pharmacol. Exp. Ther., 108, 129 (1953)].

awake rats [2] = assay: hypotensive activity in vivo on awake rats (modified method by Pals), AII challenge; set-up: species or system rat; conditions: peptide 1 mg/kg subcutaneously, 1.0 μg/kg AII intravenously from the fifth minute over three hours
Protocol: The hypotensive activity of the new compounds was tested in vivo on awake rats, according to the modified method by Pals [Circ. Res. 29, 664 (1971)].
The results are illustrated in FIG. 1.
At first a dose--effect curve was registered for AII on rats. The peptides were administered subcutaneously, in 1 mg/kg doses. In the fifth minute after administration and repeatedly in the next three hours 1.0 μg/kg of AII was added intravenously. The statistical evalulation was performed by variancy analysis.

awake rats [3] = assay: temporary (initial) hypertensive activity on awake rats; assay type: in vivo, rat; conditions: administered into the jugular vein every 20 minutes
Protocol: The temporary hypertensive activity of the AII analogues was tested also on awake rats. AII analogues were administered into the jugular vein in every 20 minutes. The results were evaluated by variancy analysis. The comparative results obtained on [Sar^1, Chg^5, Lac^8 ]-AII are shown on FIG. 2.

aldosterone release = conditions: Eur. J. Clin. Pharm., 23, 7 (1982); cited from earlier work
[4] = Eur. J. Clin. Pharm., 23, 7 (1982); cited from earlier work

Compound | inhibition of aldosterone production pA2 (aldosterone production) | vasoconstriction inhibition, pA2 [1] | other results
CC(C)[C@H](NC(=O)[C@H](CCCNC(=N)N)NC(=O)CO)C(=O)N[C@@H](Cc1ccc(O)cc1)C(=O)N[C@H](C(=O)N[C@@H](Cc1c[nH]cn1)C(=O)N1CCC[C@H]1C(=O)O[C@@H](C)C(=O)O)C1CCCCC1 [HOAc^1, CHg^5, Lac^8 --AII] (Glycolyl-RVY[Chg]HP[Lac]-OH) | 8.614 | 9.53 | –
CC(C)[C@H](NC(=O)[C@H](CCCNC(=N)N)NC(=O)[C@H](C)O)C(=O)N[C@@H](Cc1ccc(O)cc1)C(=O)N[C@H](C(=O)N[C@@H](Cc1c[nH]cn1)C(=O)N1CCC[C@H]1C(=O)O[C@@H](C)C(=O)O)C1CCCC1 [Lac^1, Cpg^5, Lac^8 --AII] (H-[Lac]RVY[Gly(cPent)]HP[Lac]-OH) | 8.392 | 8.52 | –
CC[C@H](C)[C@H](NC(=O)[C@@H]1CCCN1C(=O)[C@H](Cc1c[nH]cn1)NC(=O)[C@@H](NC(=O)[C@H](Cc1ccc(O)cc1)NC(=O)[C@@H](NC(=O)[C@H](CCCNC(=N)N)NC(=O)CON)C(C)C)[C@@H](C)CC)C(=O)O [OGly^1, Ile^8 --AII, reference compound] | 7.94 | – | –
CNCC(=O)N[C@@H](CCCNC(=N)N)C(=O)N[C@H](C(=O)N[C@@H](Cc1ccc(O)cc1)C(=O)N[C@H](C(=O)N[C@@H](Cc1c[nH]cn1)C(=O)N1CCC[C@H]1C(=O)N[C@@H](C)C(=O)O)C1CCCCC1)C(C)C [Sar^1, Chg^5, Ala^8 --AII, Sar^1, Chg^5, Ala^8 -AII] | 9.981 | 11.18 | duration of hypotensive activity compared with Saralasin (FIG. 1) (awake rats [2]): signicantly more prolonged hypotensive activity than Saralasin
CNCC(=O)N[C@@H](CCCN=C(N)N)C(=O)N[C@H](C(=O)N[C@@H](Cc1ccc(O)cc1)C(=O)N[C@H](C(=O)N[C@@H](Cc1c[nH]cn1)C(=O)N1CCC[C@H]1C(=O)O[C@@H](C)C(=O)O)C1CCCCC1)C(C)C [Sar^1, Chg^5, Lac^8 --AII] (H-[Sar]RVY[Chg]HP[Lac]-OH) | – | – | initial hypertensive activity compared with Saralasin (FIG. 2) (awake rats [3]): significantly lower initial hypertensive activity than Salarasine
CNCC(=O)N[C@@H](CCCNC(=N)N)C(=O)N[C@H](C(=O)N[C@@H](Cc1ccc(O)cc1)C(=O)N[C@H](C(=O)N[C@@H](Cc1c[nH]cn1)C(=O)N1CCC[C@H]1C(=O)O[C@@H](C)C(=O)O)C1CCCCC1)C(C)C [Sar^1, Chg^5, Lac^8 --AII] (H-[Sar]RVY[Chg]HP[Lac]-OH) | 10.390 | 11.29 | –
CNCC(=O)N[C@@H](CCCNC(=N)N)C(=O)N[C@H](C(=O)N[C@@H](Cc1ccc(O)cc1)C(=O)N[C@H](C(=O)N[C@@H](Cc1c[nH]cn1)C(=O)N1CCC[C@H]1C(=O)N[C@@H](C)C(=O)O)C1CCCC1)C(C)C [Sar^1, Cpg^5, Ala^8 --AII] | 9.933 | 9.42 | –
CNCC(=O)N[C@@H](CCCNC(=N)N)C(=O)N[C@H](C(=O)N[C@@H](Cc1ccc(O)cc1)C(=O)N[C@H](C(=O)N[C@@H](Cc1c[nH]cn1)C(=O)N1CCC[C@H]1C(=O)O[C@@H](C)C(=O)O)C1CCCC1)C(C)C [Sar^1, Cpg^5, Lac^8 --AII] (H-[Sar]RVY[Gly(cPent)]HP[Lac]-OH) | 9.649 | 11.09 | –
CC[C@H](C)[C@H](NC(=O)[C@H](Cc1ccc(O)cc1)NC(=O)[C@@H](NC(=O)[C@H](CCCNC(=N)N)NC(=O)CNC)C(C)C)C(=O)N[C@@H](Cc1c[nH]cn1)C(=O)N1CCC[C@H]1C(=O)N[C@H](C(=O)OC)[C@@H](C)CC [Sar^1, Ile^8 --AII--OMe, reference compound] | 8.98 | – | –
CC[C@H](C)[C@H](NC(=O)[C@H](Cc1ccc(O)cc1)NC(=O)[C@@H](NC(=O)[C@H](CCCNC(=N)N)NC(=O)CNC)C(C)C)C(=O)N[C@@H](Cc1c[nH]cn1)C(=O)N1CCC[C@H]1C(=O)O[C@@H](C)C(=O)O [Sar^1, Lac^8 --AII, reference compound] | 9.649 | 11.02 | –
CCOC(=O)[C@H](C)OC(=O)[C@@H]1CCCN1C(=O)[C@H](Cc1c[nH]cn1)NC(=O)[C@@H](NC(=O)[C@H](Cc1ccc(O)cc1)NC(=O)[C@@H](NC(=O)[C@H](CCCNC(=N)N)NC(=O)CNC)C(C)C)[C@@H](C)CC [Sar^1, Lac^8 --AII--OEt, reference compound] | 9.27 | – | –
CNCC(=O)N[C@@H](CCCN=C(N)N)C(=O)N[C@H](C(=O)N[C@@H](Cc1ccc(O)cc1)C(=O)N[C@H](C(=O)N[C@@H](Cc1cnc[nH]1)C(=O)N1CCC[C@H]1C(=O)N[C@@H](C)C(=O)O)C(C)C)C(C)C [Sar^1, Val^5, Ala^8 --AII, Saralasin, reference compound] | – | – | inhibition of aldosterone production pA2 (aldosterone production; in vitro, pA2): 9.634; vasoconstriction inhibition, pA2 ([1]; AII-induced vasoconstriction, isolated rabbit aorta, pA2): 11.10
Sar^1, HMV^8 --AII [reference compound] | – | – | inhibition of aldosterone production pA2 (aldosterone production; in vitro, pA2): 10.589
[Sar^1, Thr^8 ]-AII | – | – | aldosterone release inhibiting effect (aldosterone release): no aldosterone release inhibiting effect; agonistic activity [4]: small
